Results on 26 molecules are retold here after patent US10703764B2, “Benzopiperazine compositions as BET bromodomain inhibitors” (FORMA Therapeutics, Inc., priority 2013, dated 2020).

In assay [1] the target is T1, BRD4 BD1 (Homo sapiens, UniProt O60885).
T1 construct: made in house
Kind of assay: AlphaScreen binding assay, BRD4 Bromodomain 1. A digest of the protocol:
(§1)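 An AlphaScreen competition format was used with His-BRD4 BD1 or BD2 and biotin-H4 K5/8/12/16-acetyl peptide, each at matched final levels of 50 nM (BD1) or 100 nM (BD2). Incubation in HEPES/NaCl buffer with 0.1% BSA and 0.01% Triton X-100 ran ≥1 h before IC50 determination.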

Assay [2] has as its target T2, BRD4 BD2 (Homo sapiens, UniProt O60885).
T2 construct: made in house
Kind of assay: AlphaScreen binding assay, BRD4 Bromodomain 2. Put shortly:
as §1

Assay [3] has as its system MV4-11 cells. Kind of assay: Oncology cell growth assay (3-day proliferation, CellTiter-Glo). It counts as cell-based. Particulars: Homo sapiens, MV4-11, 72 h, AML cell line MV4-11, 72 hours, compounds grouped by IC50 range, read-out: MV4-11 IC50 (inhibition of proliferation, gIC50). A digest of the protocol:
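72 h, 37° C, 5% CO2; MV4-11, 3000 cells/well, RPMI 1640 + 10% FBS. Compound final 10, 3.3, 1.1, 0.37, 0.12, 0.041, 0.013, 0.0045 μM. Readout CellTiter-Glo luminescence; gIC50 by 4-parameter logistic fit, normalised to DMSO and no-cell background.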

As to `CC(=O)N1c2ccc(-c3cccc(S(=O)(=O)C4CC4)c3)cc2N(C(=O)OC2CCOCC2)C[C@@H]1C` [Example I-1244], the IC50 was 100 to 1000 nM in assay [1], 50 to 500 nM in assay [2] and 100 to 500 nM in assay [3].
`COC(=O)Nc1cc2c(cc1-c1ccc(S(C)(=O)=O)cc1)N(C(=O)OC(C)C)C[C@H](C)N2C(C)=O` [Example I-198, Isopropyl (S)-4-acetyl-6-((methoxycarbonyl)amino)-3-methyl-7-(4-(methylsulfonyl)phenyl)-3,4-dihydroquinoxaline-1 (2H)-carboxylate]: the IC50 in assay [1] was 1000 to 10000 nM; in assay [2], more than 500 nM; in assay [3], more than 500 nM.
Regarding `CNC(=O)c1cccc(-c2ccc3c(c2)N(C(=O)c2ccco2)C[C@H](C)N3C(C)=O)c1` [Example I-801], the values for the IC50 in assay [1], in assay [2] and in assay [3] were 100 to 1000 nM, 50 to 500 nM and more than 500 nM, respectively.
As to `CC(=O)N1c2ccc(-c3ccc(C(=O)N4CCSCC4)cc3)cc2N(C(=O)OC(C)C)C[C@@H]1C` [Example I-538], the IC50 lay within 100 to 1000 nM in assay [1], 50 to 500 nM in assay [2] and 100 to 500 nM in assay [3].
The corresponding values for `CC(=O)N1c2ccc(-c3cnn(C4CC4)c3)cc2N(C(=O)OC(CF)CF)C[C@@H]1C` [Example I-80, (S)-1,3-difluoropropan-2-yl 4-acetyl-7-(1-cyclopropyl-1H-pyrazol-4-yl)-3-methyl-3,4-dihydroquinoxaline-1(2H)-carboxylate] are 100 to 1000 nM, 50 to 500 nM and 100 to 500 nM.
As to `CCOC(=O)N1C[C@H](C)N(C(C)=O)c2ccc(-c3ccc(S(=O)(=O)C(C)C)cc3)cc21` [Example I-1064], the IC50 in assay [1] is 1000 to 10000 nM; in assay [2], 50 to 500 nM; in assay [3], more than 500 nM.
Consider `CC(=O)N1c2ccc(-c3ccc(N4CCCC4=O)cc3)cc2N(C(=O)OC2CCOCC2)C[C@@H]1C` [Example I-1268], for which the IC50 in assay [1] lay within 100 to 1000 nM; in assay [2], 50 to 500 nM; in assay [3], 100 to 500 nM.
The corresponding values for `COC(=O)N1c2ccc(-c3cnc(N)cn3)cc2N(C(=O)OC(C)C)C[C@@H]1C` [Example I-485] are 100 to 1000 nM, 50 to 500 nM and more than 500 nM.
The corresponding values for `CCS(=O)(=O)Nc1ccc(-c2ccc3c(c2)N(C(=O)C2CC2)C[C@H](C)N3C(C)=O)cc1` [Example I-1135] are 100 to 1000 nM, 50 to 500 nM and 100 to 500 nM.
Turning to `CCOC(=O)N1C[C@H](C)N(C(C)=O)c2ccc(-c3ccc(OC)c(N4CCCS4(=O)=O)c3)cc21` [Example I-1169], the IC50 was in the range of 100 to 1000 nM in assay [1], 50 to 500 nM in assay [2] and 100 to 500 nM in assay [3].
As for `CC(=O)N1c2ccc(-c3cnn(C4COC4)c3)cc2N(C(=O)OCC2(F)COC2)C[C@@H]1C` [Example I-66, (S)-(3-fluorooxetan-3-yl)methyl 4-acetyl-3-methyl-7-(1-(oxetan-3-yl)-1H-pyrazol-4-yl)-3,4-dihydroquinoxaline-1(2H)-carboxylate], the results for the IC50 in assay [1], in assay [2] and in assay [3] were less than 100 nM, less than 50 nM and 100 to 500 nM, respectively.
Turning to `CC(=O)N1c2ccc(-c3cnn(CC(C)(C)F)c3)cc2N(C(=O)C2CC2)C[C@@H]1C` [Example I-145, (S)-1-(4-(cyclopropanecarbonyl)-6-(1-(2-fluoro-2-methylpropyl)-1H-pyrazol-4-yl)-2-methyl-3,4-dihydroquinoxalin-1 (2H)-yl)ethanone], the figures for the IC50 in assay [1], in assay [2] and in assay [3] were 100 to 1000 nM, 50 to 500 nM and more than 500 nM, respectively.
Turning to `CCCCOC(=O)N1C[C@H](C)N(C(C)=O)c2ccc(-c3ccc(S(C)(=O)=O)cc3)cc21` [Example I-231], the IC50 in assay [1] lay in the range of 100 to 1000 nM; in assay [2], 50 to 500 nM; in assay [3], 100 to 500 nM.
As to `CCOC(=O)N1C[C@H](C)N(C(C)=O)c2ccc(-c3ccc(N4CCOCC4)cc3)cc21` [Example I-1060], the IC50 was 1000 to 10000 nM in assay [1], 50 to 500 nM in assay [2] and more than 500 nM in assay [3].
`CC(=O)N1c2ccc(-c3cnn(C4CC4)c3)cc2N(C(=O)Oc2ccc(C)nc2C)C[C@@H]1C` [Example I-1190]: the IC50 in assay [1] was 100 to 1000 nM; in assay [2] it was 50 to 500 nM; in assay [3] it was more than 500 nM.
For `CC(=O)N1c2ccc(-c3ccc(C(=O)NCCO)cc3)cc2N(C(=O)c2ccco2)C[C@@H]1C` [Example I-290] the same measures were 1000 to 10000 nM, less than 50 nM and 100 to 500 nM.
In the case of `COC(=O)N1c2ccc(-c3cnn(C[C@H]4CCNC4)c3)cc2N(C(=O)OC(C)C)C[C@@H]1C` [Example I-692], the IC50 in assay [1] was 100 to 1000 nM; in assay [2] it was 50 to 500 nM; in assay [3] it was more than 500 nM.
Regarding `CCOC(=O)N1C[C@H](C)N(C(C)=O)c2ccc(-c3ccc(NS(C)(=O)=O)c(F)c3)cc21` [Example I-1182], the IC50 is 100 to 1000 nM in assay [1], 50 to 500 nM in assay [2] and more than 500 nM in assay [3].
For `CC(=O)N1CCN(C(=O)c2ccc(-c3ccc4c(c3)N(C(=O)OC(C)C)C[C@H](C)N4C(C)=O)cc2)CC1` [Example I-548], the results for the IC50 in assay [1], in assay [2] and in assay [3] were 100 to 1000 nM, 50 to 500 nM and less than 100 nM, respectively.
In the case of `CCCS(=O)(=O)c1ccc(-c2ccc3c(c2)N(C(=O)OCC)C[C@H](C)N3C(C)=O)cc1` [Example I-1072], the IC50 in assay [1] is 100 to 1000 nM; in assay [2], 50 to 500 nM; in assay [3], 100 to 500 nM.
In the case of `CC(=O)N1c2ccc(-c3ccc(S(=O)(=O)CCO)cc3)cc2N(C(=O)OC(C)C)C[C@@H]1C` [Example I-478], the results for the IC50 in assay [1], in assay [2] and in assay [3] were 100 to 1000 nM, 50 to 500 nM and 100 to 500 nM, respectively.
For `CC(=O)N1c2ccc(-c3ccc(N4CCOCC4)cc3)cc2N(C(=O)OC(C)C)C[C@@H]1C` [Example I-1061] the same measures were 1000 to 10000 nM, 50 to 500 nM and more than 500 nM.
For `CC(=O)N1c2ccc(-c3cnn(CC4(F)COC4)c3)cc2N(C(=O)C2CC2)C[C@@H]1C` [Example I-649], the IC50 in assay [1] is 100 to 1000 nM; in assay [2], 50 to 500 nM; in assay [3] it was more than 500 nM.
`CC(=O)N1c2ccc(-c3cnn(C4CC4)c3)cc2N(c2nn(C)c3cnccc23)C[C@@H]1C` [Example I-185, 1-[(2S)-6-(1-cyclopropyl-1H-pyrazol-4-yl)-2-methyl-4-{1-methyl-1H-pyrazolo[3,4-c]pyridin-3-yl}-1,2,3,4-tetrahydroquinoxalin-1-yl]ethan-1-one]: the IC50 in assay [1] is 100 to 1000 nM; in assay [2], less than 50 nM; in assay [3], less than 100 nM.
With `CC(=O)N1c2ccc(-c3cnn(C4COC4)c3)cc2N(C(=O)OC2CC3CC3C2)C[C@@H]1C` (stereo partly drawn) [Example I-74, (3S)-bicyclo[3.1.0]hexan-3-yl 4-acetyl-3-methyl-7-(1-(oxetan-3-yl)-1H-pyrazol-4-yl)-3,4-dihydroquinoxaline-1(2H)-carboxylate], the figures for the IC50 in assay [1], in assay [2] and in assay [3] were less than 100 nM, less than 50 nM and 100 to 500 nM, respectively.
For `CC(=O)N1c2ccc(-c3ccc(C(N)=O)cc3)cc2N(C(=O)c2ccco2)C[C@@H]1C` [Example I-810] the same measures were 100 to 1000 nM, more than 500 nM and 100 to 500 nM.
